Measurements as given in US11878975B2, “Substituted indole compounds useful as TLR inhibitors” (BRISTOL-MYERS SQUIBB COMPANY, priority 2017, dated 2024).

Tests used:
Assay type in all cases: cell-based
human TLR8 = biological target: T1, human TLR8 (Homo sapiens, UniProt Q9NR97); experiment: TLR8 inhibition reporter assay (HEK-Blue cells, SEAP reporter, R848 stimulation); conditions: HEK-Blue cells overexpressing human TLR8, SEAP reporter, R848 15.9 μM
T1 construct: host or cells: HEK-Blue cells
T1 sequence (Q9NR97 27-1041): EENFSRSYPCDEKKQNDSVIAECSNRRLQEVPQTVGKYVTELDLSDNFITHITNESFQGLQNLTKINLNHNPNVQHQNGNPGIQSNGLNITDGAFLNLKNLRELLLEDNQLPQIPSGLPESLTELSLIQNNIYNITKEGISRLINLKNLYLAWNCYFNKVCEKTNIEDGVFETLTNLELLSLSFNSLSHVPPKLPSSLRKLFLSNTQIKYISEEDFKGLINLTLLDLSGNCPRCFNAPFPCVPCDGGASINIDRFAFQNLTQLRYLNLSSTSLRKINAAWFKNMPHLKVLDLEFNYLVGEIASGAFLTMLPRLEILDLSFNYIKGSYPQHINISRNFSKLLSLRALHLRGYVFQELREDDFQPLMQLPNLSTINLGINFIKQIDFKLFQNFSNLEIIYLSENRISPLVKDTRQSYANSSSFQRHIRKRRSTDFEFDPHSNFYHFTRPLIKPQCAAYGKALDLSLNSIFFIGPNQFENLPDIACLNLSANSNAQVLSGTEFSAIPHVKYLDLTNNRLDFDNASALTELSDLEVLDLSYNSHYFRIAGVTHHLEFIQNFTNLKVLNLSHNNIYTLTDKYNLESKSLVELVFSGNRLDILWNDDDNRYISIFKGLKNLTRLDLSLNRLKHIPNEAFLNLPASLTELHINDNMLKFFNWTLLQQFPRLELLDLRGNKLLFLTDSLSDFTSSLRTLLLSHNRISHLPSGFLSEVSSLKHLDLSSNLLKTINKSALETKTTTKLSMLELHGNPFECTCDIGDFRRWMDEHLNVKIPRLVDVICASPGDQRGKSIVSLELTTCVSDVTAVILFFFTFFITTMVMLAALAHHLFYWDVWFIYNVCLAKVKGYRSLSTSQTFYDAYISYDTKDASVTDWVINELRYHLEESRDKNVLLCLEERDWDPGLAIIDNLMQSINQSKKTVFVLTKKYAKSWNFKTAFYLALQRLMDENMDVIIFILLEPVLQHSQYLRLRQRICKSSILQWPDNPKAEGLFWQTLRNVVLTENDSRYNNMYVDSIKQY
Method in brief: (§1)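 Ligand levels: TLR7 gardiquimod 7.5 μM, TLR8 R848 15.9 μM, TLR9 ODN2006 5 nM, added after 30 min room-temperature compound pre-incubation at 0.05 nM-50 μM. Reporter SEAP read with HEK-Blue Detection reagent after 22 h, 37° C. Inhibition expressed as % reduction relative to agonist-plus-DMSO and known-inhibitor controls.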

human TLR7 = biological target: T2, human TLR7 (Homo sapiens, UniProt Q9NYK1); experiment: TLR7 inhibition reporter assay (HEK-Blue cells, SEAP reporter, gardiquimod stimulation); conditions: HEK-Blue cells overexpressing human TLR7, SEAP reporter, gardiquimod 7.5 μM
T2 construct: host or cells: HEK-Blue cells
T2 sequence (Q9NYK1 27-1049): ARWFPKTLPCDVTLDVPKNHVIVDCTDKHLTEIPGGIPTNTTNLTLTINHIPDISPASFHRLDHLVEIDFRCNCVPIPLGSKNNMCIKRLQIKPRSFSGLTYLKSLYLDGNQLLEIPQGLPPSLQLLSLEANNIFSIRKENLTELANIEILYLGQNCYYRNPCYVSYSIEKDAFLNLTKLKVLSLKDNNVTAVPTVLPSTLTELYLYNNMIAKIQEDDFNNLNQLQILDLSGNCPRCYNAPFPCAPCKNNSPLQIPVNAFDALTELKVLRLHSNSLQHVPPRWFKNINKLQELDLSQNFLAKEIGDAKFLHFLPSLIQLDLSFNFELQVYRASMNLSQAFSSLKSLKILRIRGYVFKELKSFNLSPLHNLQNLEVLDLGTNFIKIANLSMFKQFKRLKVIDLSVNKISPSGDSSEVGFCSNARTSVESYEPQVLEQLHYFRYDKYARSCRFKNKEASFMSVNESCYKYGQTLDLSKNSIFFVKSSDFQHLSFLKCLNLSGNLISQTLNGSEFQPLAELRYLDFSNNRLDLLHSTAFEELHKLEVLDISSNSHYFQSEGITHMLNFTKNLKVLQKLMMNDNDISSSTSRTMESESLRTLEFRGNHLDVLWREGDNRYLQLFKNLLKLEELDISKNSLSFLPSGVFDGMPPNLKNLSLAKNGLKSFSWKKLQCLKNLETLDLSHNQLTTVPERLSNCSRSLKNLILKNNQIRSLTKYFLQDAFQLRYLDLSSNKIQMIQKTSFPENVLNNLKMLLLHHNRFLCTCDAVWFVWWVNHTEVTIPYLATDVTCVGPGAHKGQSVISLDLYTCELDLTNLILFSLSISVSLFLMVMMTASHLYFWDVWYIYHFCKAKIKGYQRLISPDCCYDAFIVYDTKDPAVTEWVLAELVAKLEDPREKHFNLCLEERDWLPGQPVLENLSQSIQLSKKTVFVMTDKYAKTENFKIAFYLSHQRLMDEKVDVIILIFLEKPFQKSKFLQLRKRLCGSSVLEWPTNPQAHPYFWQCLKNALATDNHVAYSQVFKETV
Method in brief: as §1

human TLR9 = biological target: T3, human TLR9 (Homo sapiens, UniProt Q9NR96); experiment: TLR9 inhibition reporter assay (HEK-Blue cells, SEAP reporter, ODN2006 stimulation); conditions: HEK-Blue cells overexpressing human TLR9, SEAP reporter, ODN2006 5 nM
T3 construct: host or cells: HEK-Blue cells
T3 sequence (Q9NR96 26-1032): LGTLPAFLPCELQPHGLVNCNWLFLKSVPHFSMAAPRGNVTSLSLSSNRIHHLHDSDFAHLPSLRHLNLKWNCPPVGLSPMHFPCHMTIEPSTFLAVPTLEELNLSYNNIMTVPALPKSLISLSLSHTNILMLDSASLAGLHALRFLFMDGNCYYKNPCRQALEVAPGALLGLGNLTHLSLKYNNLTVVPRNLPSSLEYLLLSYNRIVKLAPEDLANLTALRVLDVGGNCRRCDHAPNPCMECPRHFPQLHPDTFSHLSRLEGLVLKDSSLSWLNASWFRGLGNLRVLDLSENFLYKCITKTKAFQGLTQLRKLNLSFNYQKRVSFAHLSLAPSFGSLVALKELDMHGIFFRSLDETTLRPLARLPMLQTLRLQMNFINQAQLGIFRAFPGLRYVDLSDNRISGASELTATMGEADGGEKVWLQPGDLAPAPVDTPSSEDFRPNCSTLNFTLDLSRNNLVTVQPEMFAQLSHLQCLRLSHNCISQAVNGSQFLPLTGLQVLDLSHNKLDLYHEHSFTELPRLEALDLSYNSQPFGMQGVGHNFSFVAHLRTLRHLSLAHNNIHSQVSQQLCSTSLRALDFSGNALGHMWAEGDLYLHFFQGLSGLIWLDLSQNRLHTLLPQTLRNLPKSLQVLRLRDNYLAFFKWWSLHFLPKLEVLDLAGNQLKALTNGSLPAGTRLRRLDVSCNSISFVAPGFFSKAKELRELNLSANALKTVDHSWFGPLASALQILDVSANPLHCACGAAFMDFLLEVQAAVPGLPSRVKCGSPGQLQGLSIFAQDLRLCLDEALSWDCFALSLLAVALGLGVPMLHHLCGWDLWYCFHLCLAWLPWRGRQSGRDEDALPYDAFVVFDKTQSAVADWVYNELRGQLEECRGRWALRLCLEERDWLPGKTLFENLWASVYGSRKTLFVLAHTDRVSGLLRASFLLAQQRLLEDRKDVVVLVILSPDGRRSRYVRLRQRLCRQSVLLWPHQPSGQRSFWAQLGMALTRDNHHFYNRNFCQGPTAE
Method in brief: as §1

| Structure (SMILES) | IC50 (human TLR8) [nM] | IC50 (human TLR7) [nM] | IC50 (human TLR9) [nM] |
| --- | --- | --- | --- |
| Cc1cc(-c2[nH]c3ccc(C4CCC(N5CCN(C)CC5)CC4)cc3c2C(C)C)cc(C)n1 (single isomer, unassigned) [Example 36] | 3.9 | 2 | 417 |
| Cc1cc(-c2[nH]c3ccc(C4CCC(N5CCCC(F)(F)C5)CC4)cc3c2C(C)C)cn(C)c1=O (stereo not drawn) [Example 467] | 33 | 48 | 47000 |
| Cc1cc(-c2[nH]c3ccc(CCN4CCCC(F)C4)cc3c2C(C)C)cn(C)c1=O (stereo not drawn) [Example 406] | 3.2 | 14 | 8810 |
| COc1cc(-c2[nH]c3ccc(C4CCC(NCC(=O)NC5COC5)CC4)cc3c2C(C)C)cn2ncnc12 (stereo not drawn) [Example 164] | 7.1 | 1 | 1920 |
| COc1cc(-c2[nH]c3ccc(C4CCC(NC5(C)CC5)CC4)cc3c2C(C)C)cn2ncnc12 (stereo not drawn) [Example 43] | 13 | 1 | 4370 |
| Cc1cc(-c2[nH]c3ccc([C@@H]4C[C@H]4C(=O)N(C)C4CC5CCN4CC5)cc3c2C(C)C)ccn1 (stereo partly drawn) [Example 463] | 15 | 35 | 406 |
| Cc1c(-c2[nH]c3ccc(C4CCC(NC(=O)CN(C)C)CC4)cc3c2C(C)C)cn(C)c(=O)c1C (stereo not drawn) [Example 471] | 14 | 43 | 38300 |
| Cc1c(-c2[nH]c3ccc(C4CC(N(C)CCS(C)(=O)=O)C4)cc3c2C(C)C)cn2ncnc2c1C (stereo not drawn) [Example 582] | 0.56 | 3 | 35700 |
| Cc1cc(-c2[nH]c3ccc(CC4CCCN4)cc3c2C(C)C)cn2ncnc12 (stereo not drawn) [Example 398, 2-{8-methyl-[1,2,4]triazolo[1,5-a]pyridin-6-yl}-3-(propan-2-yl)-5-[(pyrrolidin-2-yl)methyl]-1H-indole] | 3.5 | 1 | 1580 |
| Cc1c(-c2[nH]c3ccc(C4CC(N)C4)cc3c2C(C)C)cn(C)c(=O)c1C (stereo not drawn) [Example 493] | 4.6 | 16 | 4200 |
| COc1cc(-c2[nH]c3ccc(C4CCC(NC(=O)CNC5(C)COC5)CC4)cc3c2C(C)C)cn2ncnc12 (stereo not drawn) [Example 135] | 12 | 2 | 43800 |
| CNC1CCC(c2ccc3[nH]c(-c4cn5cnnc5c(C)c4C)c(C(C)C)c3c2)CC1 (stereo not drawn) [Example 530] | 12 | 2 | 696 |
| COc1cc(-c2[nH]c3ccc(C4CN(C(=O)CNC5(C)COC5)CCO4)cc3c2C(C)C)cn2ncnc12 (stereo not drawn) [Example 361] | 2.5 | 0.91 | 5320 |
| CC(C)c1c(-c2ccnc3[nH]ncc23)[nH]c2ccc(C3CCCNCC3)cc12 (stereo not drawn) [Example 501] | 4.3 | 12 | 739 |
| Cc1c(-c2[nH]c3ccc(C4CCCNC4)cc3c2C(C)C)cn2ncnc2c1C (stereo not drawn) [Example 189] | 0.23 | 0.34 | 1030 |
| Cc1c(-c2[nH]c3ccc(C4CC5CN(C)CC5C4)cc3c2C(C)C)cn2cnnc2c1C (stereo not drawn) [Example 559] | 9.2 | 2 | 2120 |

More lines, in order of falling IC50 (human TLR8), values ahead:

| IC50 (human TLR8) [nM] | IC50 (human TLR7) [nM] | IC50 (human TLR9) [nM] | Structure (SMILES) |
| --- | --- | --- | --- |
| 123 | 19 | 677 | Cc1cc(-c2[nH]c3ccc(C4CCCN(C(=O)C5CNC5)C4)cc3c2C(C)C)cc(C)n1 (stereo not drawn) [Example 215] |
| 40 | 51 | 27800 | Cc1c(-c2[nH]c3ccc(C4CN(Cc5ncn(C)n5)C4)cc3c2C(C)C)cn2cnnc2c1C [Example 537] |
| 21 | 57 | 2270 | Cc1cc(-c2[nH]c3ccc([C@@H]4C[C@H]4C(=O)NC4CCN(C(C)C)CC4)cc3c2C(C)C)ccn1 [Example 458] |
| 12 | 40 | 693 | Cc1cc(-c2[nH]c3ccc(C4CCCN(CC(=O)N(C)C)C4)cc3c2C(C)C)cc(C)n1 (stereo not drawn) [Example 235] |
| 8.9 | 4 | 3590 | Cc1cc(-c2[nH]c3ccc(C4CCC(NC5CC5)CC4)cc3c2C(C)C)cn2ncnc12 (single isomer, unassigned) [Example 15] |
| 7.9 | 7 | 8960 | COc1cc(-c2[nH]c3ccc(CCN4CCOCC4)cc3c2C(C)C)cn2ncnc12 [Example 411] |
| 4.2 | 8 | 4720 | Cc1c(-c2[nH]c3ccc(CC4CN(CCS(C)(=O)=O)C4)cc3c2C(C)C)cn2ncnc2c1C [Example 437] |
| 3.8 | 13 | 44000 | Cc1c(-c2[nH]c3ccc(C4CC(N(C)CCS(C)(=O)=O)C4)cc3c2C(C)C)cn2ncnc2c1C (stereo not drawn) [Example 586] |
| 1.3 | 0.23 | 1150 | CCN(C)C1CCC(c2ccc3[nH]c(-c4cc(OC)c5ncnn5c4)c(C(C)C)c3c2)CC1 (single isomer, unassigned) [Example 65] |
| 0.48 | 0.5 | 2620 | COc1cc(-c2[nH]c3ccc(C4CNC(C)(C)CO4)cc3c2C(C)C)cn2ncnc12 (stereo not drawn) [Example 369] |
